ChEMBL document CHEMBL5126582, “Discovery of (2-(pyrrolidin-1-yl)thieno[3,2-d]pyrimidin-4-yl)(3,4,5-trimethoxyphenyl)methanone as a novel potent tubulin depolymerizing and vascular disrupting agent” (Eur J Med Chem, 2022)

Legend:
HeLa [1] = assay: Induction of apoptosis in human HeLa cells assessed as late apoptotic cells at 1 uM incubated for 48 hrs by annexin V FITC and propidium iodide staining based flow cytometry analysis (reference value: 8.87%); assay type: functional
HeLa [2] = assay: Induction of apoptosis in human HeLa cells assessed as early apoptotic cells at 500 nM incubated for 24 hrs by annexin V FITC and propidium iodide staining based flow cytometry analysis (reference value: 0.12%); assay type: functional
HeLa [3] = assay: Induction of apoptosis in human HeLa cells assessed as necrotic cells at 1 uM incubated for 48 hrs by annexin V FITC and propidium iodide staining based flow cytometry analysis (reference value: 1.85 %); assay type: functional
HeLa [4] = assay: Induction of apoptosis in human HeLa cells assessed as necrotic cells at 500 nM incubated for 24 hrs by annexin V FITC and propidium iodide staining based flow cytometry analysis (reference value: 1.14 %); assay type: functional
HeLa [5] = assay: Induction of mitochondrial membrane potential alteration in human HeLa cells assessed as early apoptotic cells at 250 nM measured after 48 hrs by JC1 staining-based flow cytometry analysis (reference value: 9.07 %); assay type: functional
HeLa [6] = assay: Induction of apoptosis in human HeLa cells assessed as early apoptotic cells at 500 nM incubated for 72 hrs by annexin V FITC and propidium iodide staining based flow cytometry analysis (reference value: 2.36%); assay type: functional
HeLa [7] = assay: Induction of apoptosis in human HeLa cells assessed as necrotic cells at 100 nM incubated for 24 hrs by annexin V FITC and propidium iodide staining based flow cytometry analysis (reference value: 1.14 %); assay type: functional
HeLa [8] = assay: Induction of apoptosis in human HeLa cells assessed as early apoptotic cells at 100 nM incubated for 24 hrs by annexin V FITC and propidium iodide staining based flow cytometry analysis (reference value: 0.12%); assay type: functional
HeLa [9] = assay: Induction of apoptosis in human HeLa cells assessed as necrotic cells at 750 nM incubated for 48 hrs by annexin V FITC and propidium iodide staining based flow cytometry analysis (reference value: 1.85 %); assay type: functional
HeLa [10] = assay: Induction of apoptosis in human HeLa cells assessed as necrotic cells at 750 nM incubated for 24 hrs by annexin V FITC and propidium iodide staining based flow cytometry analysis (reference value: 1.14 %); assay type: functional
Tubulin = Tubulin (Sus scrofa, UniProt P02554+P02550); assay: Inhibition of pig brain tubulin polymerization incubated for 19 mins by spectrophotometric method
HeLa [11] = assay: Induction of mitochondrial membrane potential alteration in human HeLa cells assessed as necrotic cells at 750 nM measured after 48 hrs by JC1 staining-based flow cytometry analysis (reference value: 0%); assay type: functional
HeLa [12] = assay: Induction of apoptosis in human HeLa cells assessed as viable cells at 500 nM incubated for 72 hrs by annexin V FITC and propidium iodide staining based flow cytometry analysis (reference value: 90.1%); assay type: functional; details: read-out: Activity
HeLa [13] = assay: Induction of apoptosis in human HeLa cells assessed as necrotic cells at 500 nM incubated for 72 hrs by annexin V FITC and propidium iodide staining based flow cytometry analysis (reference value: 2.88 %); assay type: functional
HeLa [14] = assay: Induction of mitochondrial membrane potential alteration in human HeLa cells assessed as viable cells at 250 nM measured after 48 hrs by JC1 staining-based flow cytometry analysis (reference value: 90.9%); assay type: functional; details: read-out: Activity
HeLa [15] = assay: Induction of apoptosis in human HeLa cells assessed as late apoptotic cells at 500 nM incubated for 24 hrs by annexin V FITC and propidium iodide staining based flow cytometry analysis (reference value: 0.05%); assay type: functional
HeLa [16] = assay: Induction of mitochondrial membrane potential alteration in human HeLa cells assessed as viable cells at 500 nM measured after 48 hrs by JC1 staining-based flow cytometry analysis (reference value: 90.9%); assay type: functional; details: read-out: Activity
HeLa [17] = assay: Induction of mitochondrial membrane potential alteration in human HeLa cells assessed as viable cells at 1 uM measured after 48 hrs by JC1 staining-based flow cytometry analysis (reference value: 90.9%); assay type: functional; details: read-out: Activity
[18] = Resistance index, ratio of IC50 for antiproliferative activity against human A549/PTX cells assessed as reduction in cell viability to IC50 for antiproliferative activity against human A549 cells assessed as reduction in cell viability; assay type: functional
HeLa [19] = assay: Induction of apoptosis in human HeLa cells assessed as viable cells at 750 nM incubated for 24 hrs by annexin V FITC and propidium iodide staining based flow cytometry analysis (reference value: 85.7%); assay type: functional; details: read-out: Activity
A549 = assay: cells; details: Homo sapiens, A549, 48 h
Description: Antiproliferative activity against human A549 cells assessed as reduction in cell viability incubated for 48 hrs by MTS assay

Compound: COc1cc(C(=O)c2nc(N3CCCC3)nc3ccsc23)cc(OC)c1OC
- Activity (HeLa [1]): 41.2%
- Activity (HeLa [2]): 6.1%
- Activity (HeLa [3]): 46.3%
- Activity (HeLa [4]): 1.74%
- Activity (HeLa [5]): 9.45%
- Activity (HeLa [6]): 0.734%
- Activity (HeLa [7]): 1.52%
- Activity (HeLa [8]): 2.98%
- Activity (HeLa [9]): 22.5%
- Activity (HeLa [10]): 3.09%
- IC50 (Tubulin): 1600 nM
- Activity (HeLa [11]): 0.019%
- viability at 0.5 µM (HeLa [12]): 32.6%
- Activity (HeLa [13]): 52.2%
- viability at 0.25 µM (HeLa [14]): 90.5%
- Activity (HeLa [15]): 6.42%
- viability at 0.5 µM (HeLa [16]): 66.9%
- viability at 1 µM (HeLa [17]): 44.6%
- Ratio IC50 [18]: 1.7
- viability at 0.75 µM (HeLa [19]): 81.3%
- IC50 (A549): 14 nM
